The subject of one assay is CEA-Cupid. The assay is described as follows: Clearance of Cupid by Zephyr2 in vivo, xenograft mouse models, blood radioactivity of Psyche-B-DOTA(^111In). The conditions noted are these: Zephyr2 20 hours after CEA-Cupid; Psyche-B-DOTA(111In) two hours later; blood collected 4 hours after labeling substance. On the procedure:
A 100 mM acetate buffer was added to ^111InCl3 solution 37 MBq (approx. […]) in the same volume as the ^111InCl3 solution, and the pH of the mixed solution was then adjusted to pH 4 to 5. Psyche-B-DOTA was added to the mixed solution at a molar ratio of 1000 times (10 nmol), such that the concentration of DMSO became 0.2% or more. The thus obtained mixture was heated at 80° C. for 15 minutes or more. Thereafter, the reaction mixture was analyzed according to HPLC, and the radiochemical purity was confirmed. The mixture was diluted with a 10 mM acetate buffer to a concentration of 1 nmol/mL, and the obtained solution was used as an administration solution.
Whether or not Cupid existing in the blood of a living body is cleared by Zephyr2 was examined by performing an experiment using xenograft mouse models. The experiment was carried out using three mice from a Zephyr2 administration group and three mice from a non-administration group (control group). Specifically, […] CEA-Cupid was administered to the xenograft mouse models, and 20 hours after the administration of CEA-Cupid, 100 μmol Zephyr2 was administered (the control group was untreated). […] Subsequently, 4 hours after the administration of the labeling substance, the blood was collected, and the amount of radioactivity therein was then measured using a gamma counter. […]

For assay [1], the target named is T1, Cupid (Streptomyces avidinii, UniProt P22629, Y46S/N47D/S51D/S69N/N73G/Y107S/R108K/E125D/R127K/E140N).
T1 construct: fused on or other part: Anti-CEACAM5 scFv antibody ST03 fused to Cupid as the molecular probe (ST03-Cupid = anti-CEA-Cupid = 'CEA-Cupid'); 6xHis tag at the C-terminus
T1 sequence (P22629 whole entry Y46S/N47D/S51D/S69N/N73G/Y107S/R108K/E125D/R127K/E140N, looked up, the tested form may be a part): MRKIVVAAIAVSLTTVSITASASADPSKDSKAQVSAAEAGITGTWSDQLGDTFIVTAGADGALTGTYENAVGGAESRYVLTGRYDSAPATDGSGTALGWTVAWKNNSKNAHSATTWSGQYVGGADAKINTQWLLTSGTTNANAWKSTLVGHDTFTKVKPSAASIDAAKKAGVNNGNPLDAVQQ
As to the kind of experiment: Affinity to Cupid, SPR kinetics analysis (Biacore T200, Single Cycle Kinetics, CEA-Cupid immobilized). Format: binding. The settings on record: for ka / kd: Bivalent Analyte fit. On the procedure:
(§1) In order to examine the affinity of Zephyr1 and Zephyr2 to Cupid, kinetics analysis was carried out using SPR (Biacore T200). Specifically, using Amin Coupling Kit (GE Healthcare), CEA-Cupid serving as a ligand was immobilized on Sensor Chip CM5 (GE Healthcare), targeting 5000RU. Thereafter, using 5 two-fold serial dilutions (from 10 nM) of Zephyr1 or Zephyr2 serving as an analyte, kinetics analysis was carried out according to a Single Cycle Kinetics method. Thereafter, using Biacore T200 Evaluation Software, version 2.0 (GE Healthcare), the obtained data were fitted at a Bivalent Analyte mode, and kinetic parameters were calculated. As a result, Zephyr1: ka=3.792E+4, kd=4.42E−6 (FIG. 3A); and Zephyr2: ka=1.578E+7, kd=0.09339 (FIG. 3B).
For orientation: In SPR one partner is held on a chip, and binding of the other changes the refractive index at the surface.

Another assay has as its system [^125I]ST03-Cupid. The assay is described as follows: In vivo test of clearing agent: change in blood radioactivity concentration of [^125I]ST03-Cupid in mice. The conditions noted are these: mouse blood. On the procedure:
In order to examine the efficacy of Compound 14 (Zephyr1), ^125I-labeled ST03-Cupid ([^125I]ST03-Cupid) was administered to male mice via single intravenous administration, and the blood was then collected over time, so that a change in the blood radioactivity concentration caused by administration of Compound 14 was measured. Specifically, four experimental groups were prepared. In a first group, Compound 14 was administered to the mice via single intravenous administration, 6 hours after administration of [^125I]ST03-Cupid. A second group was defined as a control group for the first group, and a normal saline was administered to the mice, instead of Compound 14. In a third group, Compound 14 was administered to the mice via single intravenous administration, 24 hours after administration of [^125I]ST03-Cupid. A fourth group was defined as a control group for the third group, and a normal saline was administered to the mice, instead of Compound 14.
Specifically, with regard to administration of [^125I]ST03-Cupid to the mice, 100 μL of [^125I]ST03-Cupid was administered in a concentration of 50 kBq/100 μL to the mice via single intravenous administration ([…]/50 kBq/100 μL injection). Thereafter, 6 hours or 24 hours after administration of [^125I]ST03-Cupid, Compound 14 was administered to the mice in an amount of 2 times the number of moles of the administered ST03-Cupid ([…]/100 μL injection), or 100 μL of a normal saline was administered to the mice. It is to be noted that the experiments were carried out using the mice groups (n=4 to 6 in each group).
The blood was collected from the orbital vein of the mice over time. When Compound 14 was administered to the mice 6 hours after administration of [^125I]ST03-Cupid, blood collection was carried out with the following time intervals: first blood collection—10 minutes after administration of [^125I]ST03-Cupid, second blood collection—6 hours after administration of [^125]ST03-Cupid, third blood collection—10 minutes after administration of Saline or Compound 14, fourth blood collection—1 hour after administration of Saline or Compound 14, fifth blood collection—3 hours after administration of Saline or Compound 14, sixth blood collection—18 hours after administration of Saline or Compound 14, and seventh blood collection—24 hours after administration of Saline or Compound 14. Likewise, when Compound 14 was administered to the mice 24 hours after administration of [^125I]ST03-Cupid, blood collection was carried out with the following time intervals: first blood collection—10 minutes after administration of [^125]ST03-Cupid, second blood collection—24 hours after administration of [^125I]ST03-Cupid, third blood collection—10 minutes after administration of Saline or Compound 14, fourth blood collection—1 hour after administration of Saline or Compound 14, fifth blood collection—3 hours after administration of Saline or Compound 14, sixth blood collection—6 hours after administration of Saline or Compound 14, and seventh blood collection—24 hours after administration of Saline or Compound 14. The collected blood (40 to 50 μL) was measured using a gamma counter. The counting rate (dmp) measured with the gamma counter was divided by the amount of blood collected (g) to calculate a counting rate (dpm/g of blood) per unit weight, and the results were shown in a graph. Likewise, the counting rate (dmp) measured with the gamma counter was divided by the counting rate of [^125I]ST03-Cupid before administration, so as to calculate the remaining percentage (% ID/g of blood) in the dose after the administration. The results were shown in a graph. The measurement results are shown in Tables 1 and 2 and FIGS. 1 and 2.

Assay [2] concerns the target T2, Cupid (Streptomyces avidinii, UniProt P22629, E125D/E140N/N47D/N73G/R108K/R127K/S51D/S69N/Y107S/Y46S).
T2 construct: fused on or other part: Anti-CEACAM5 scFv antibody ST03 fused to Cupid as the molecular probe (ST03-Cupid = anti-CEA-Cupid = 'CEA-Cupid'); 6xHis tag at the C-terminus
The assay is described as follows: Affinity to Cupid, SPR kinetics analysis (Biacore T200, Single Cycle Kinetics, CEA-Cupid immobilized). In kind it is binding. On the procedure:
as §1

The mark [3] stands for this setting: CA given 6 hr after [125I]ST03-Cupid, time 0.17 hr (before CA).
The mark [4] stands for this setting: CA given 6 hr after [125I]ST03-Cupid, time 5.92 hr (before CA).
The mark [5] stands for this setting: CA given 6 hr after [125I]ST03-Cupid, time 6.17 hr.
[6] abbreviates: CA given 6 hr after [125I]ST03-Cupid, time 7 hr.
The mark [7] stands for this setting: CA given 6 hr after [125I]ST03-Cupid, time 9 hr.
Setting [8] is: CA given 6 hr after [125I]ST03-Cupid, time 24 hr.
The mark [9] stands for this setting: CA given 6 hr after [125I]ST03-Cupid, time 30 hr.
[10] abbreviates: CA given 24 hr after [125I]ST03-Cupid, time 0.17 hr (before CA).
[11] abbreviates: CA given 24 hr after [125I]ST03-Cupid, time 23.92 hr (before CA).
The mark [12] stands for this setting: CA given 24 hr after [125I]ST03-Cupid, time 24.17 hr.
Setting [13] is: CA given 24 hr after [125I]ST03-Cupid, time 25 hr.
The mark [14] stands for this setting: CA given 24 hr after [125I]ST03-Cupid, time 27 hr.
The mark [15] stands for this setting: CA given 24 hr after [125I]ST03-Cupid, time 30 hr.
The mark [16] stands for this setting: CA given 24 hr after [125I]ST03-Cupid, time 48 hr.

T2 sequence (P22629 whole entry E125D/E140N/N47D/N73G/R108K/R127K/S51D/S69N/Y107S/Y46S, looked up, the tested form may be a part): as the sequence (P22629 whole entry Y46S/N47D/S51D/S69N/N73G/Y107S/R108K/E125D/R127K/E140N, looked up, the tested form may be a part) above

Take `COC(=O)C(CCCCNC(=O)c1cc(NC(=O)NCCOCCOCCNC(=O)CCc2cn(CCOCCOCCOC(=O)NC(CCC(=O)NCCOCCOCCNC(=O)CCSC3OC(CO)C(O)C(O)C3NC(C)=O)(CCC(=O)NCCOCCOCCNC(=O)CCSC3OC(CO)C(O)C(O)C3NC(C)=O)CCC(=O)NCCOCCOCCNC(=O)CCSC3OC(CO)C(O)C(O)C3NC(C)=O)nn2)cc(C(=O)NCCCCC(NC(=O)CCCCC2SCC3NC(=N)NC32)C(=O)OC)c1)NC(=O)CCCCC1SCC2NC(=N)NC21` (stereo not drawn) [Compound 25]: the “amount of radioactivity in blood” value with CEA-Cupid is 4.51 % ID/g. On Cupid [1] (SPR), this compound displayed a ka of 1.578E+7 and a kd of 0.09339. Besides, the Kd (commonly the concentration at which binding is half-saturated) on Cupid [1] (SPR, printed as KD=ka/kd) was found to be 5.88 nM. Moreover, the “affinity to Cupid reduced in comparison to that of Zephyr1” value at Cupid [1] (ratio of KD values) is listed as “approximately one fiftieth”.
As for `CC(=O)NC1C(SCCC(=O)NCCOCCOCCNC(=O)CCC(CCC(=O)NCCOCCOCCNC(=O)CCSC2OC(CO)C(O)C(O)C2NC(C)=O)(CCC(=O)NCCOCCOCCNC(=O)CCSC2OC(CO)C(O)C(O)C2NC(C)=O)NC(=O)OCCOCCOCCn2cc(COCCNC(=O)c3cc(NC(=O)CCCCCNC(=O)CCCC[C@@H]4SC[C@@H]5NC(=N)N[C@@H]54)cc(NC(=O)CCCCCNC(=O)CCCC[C@@H]4SC[C@@H]5NC(=N)N[C@@H]54)c3)nn2)OC(CO)C(O)C1O` (stereo partly drawn) [Compound 14], the “% Injected Dose/g of blood” value in assay [^125I]ST03-Cupid (setting [3]) is reported as 31.7 ± 3.6 % Injected Dose/g of blood; in assay [^125I]ST03-Cupid (setting [4]), 16.6 ± 2.2 % Injected Dose/g of blood; in assay [^125I]ST03-Cupid (setting [5]) it was 6.2 ± 1.8 % Injected Dose/g of blood; in assay [^125I]ST03-Cupid (setting [6]), 4.8 ± 1.6 % Injected Dose/g of blood; in assay [^125I]ST03-Cupid (setting [7]), 4.4 ± 1.6 % Injected Dose/g of blood; in assay [^125I]ST03-Cupid (setting [8]) it was 2.4 ± 0.8 % Injected Dose/g of blood. Moreover, the “% Injected Dose/g of blood” value was 2.0 ± 0.7 % Injected Dose/g of blood in assay [^125I]ST03-Cupid (setting [9]); 33.8 ± 2.5 % Injected Dose/g of blood in assay [^125I]ST03-Cupid (setting [10]); 6.2 ± 0.9 % Injected Dose/g of blood in assay [^125I]ST03-Cupid (setting [11]); 0.4 ± 0.1 % Injected Dose/g of blood in assay [^125I]ST03-Cupid (setting [12]); 0.4 ± 0.1 % Injected Dose/g of blood in assay [^125I]ST03-Cupid (setting [13]); 0.6 ± 0.1 % Injected Dose/g of blood in assay [^125I]ST03-Cupid (setting [14]). In addition, the “% Injected Dose/g of blood” value in assay [^125I]ST03-Cupid (setting [15]) was 0.6 ± 0.2 % Injected Dose/g of blood; in assay [^125I]ST03-Cupid (setting [16]), 0.5 ± 0.1 % Injected Dose/g of blood. For the same compound, the Radioactivity concentration in assay [^125I]ST03-Cupid (setting [3]) is 599504 ± 68046 dpm/g; in assay [^125I]ST03-Cupid (setting [4]), 312854 ± 42382 dpm/g; in assay [^125I]ST03-Cupid (setting [5]) it was 117840 ± 34798 dpm/g; in assay [^125I]ST03-Cupid (setting [6]), 90787 ± 29628 dpm/g; in assay [^125I]ST03-Cupid (setting [7]), 83236 ± 29606 dpm/g; in assay [^125I]ST03-Cupid (setting [8]), 46178 ± 15340 dpm/g. Also, the Radioactivity concentration in assay [^125I]ST03-Cupid (setting [9]) is on record as 37023 ± 13443 dpm/g; in assay [^125I]ST03-Cupid (setting [10]), 638296 ± 48098 dpm/g; in assay [^125I]ST03-Cupid (setting [11]), 116201 ± 17325 dpm/g; in assay [^125I]ST03-Cupid (setting [12]) it was 8368 ± 1872 dpm/g; in assay [^125I]ST03-Cupid (setting [13]), 7381 ± 1798 dpm/g; in assay [^125I]ST03-Cupid (setting [14]) it was 10748 ± 2533 dpm/g. The Radioactivity concentration in assay [^125I]ST03-Cupid (setting [15]) came to 12088 ± 3191 dpm/g; in assay [^125I]ST03-Cupid (setting [16]), 9001 ± 1942 dpm/g. At Cupid [1] (SPR), this compound displayed a ka of 3.792E+4. Moreover, the kd on Cupid [1] (SPR) was found to be 4.42E−6. The compound also came in with a Kd on Cupid [2] of 0.117 nM.

The values above are taken from patent US11866457B2, “Clearing agent” (SAVID THERAPEUTICS INC., priority 2016, dated 2024).
